Assay results published in patent publication US4029801A, “Pharmaceutical compositions and methods of treating hypertension” (priority 1970, dated 1977).
Read-outs that look alike come from different tables or passages of the source.

Columns and labels:
[1] = Depressant activity; format: in vivo; conditions: result in words
[2] = test system: blood pressure and heart rate; assay: Method 1 (rat): hypotensive activity in anaesthetised rats, i.v.; conditions: for minimal effective dose: Rattus norvegicus, iv
Protocol: Rats were anaesthetised with pentobarbitone sodium (60 mg/kg) and the jugular vein, trachea and carotid artery were cannulated. […] A decrease in heart rate of more than 30% from control values was considered to be significant bradycardia.

[3] = test system: blood pressure; assay: Tests for action on the cardiovascular system: hypotensive activity (activity in method 1, rats or cats, or method 2), reported in words; format: in vivo, rat, cat; conditions: standard test procedure, result in words
Protocol: Tests for action on the cardiovascular system were conducted according to one of the following procedures:
Cats were anaesthetised with pentobarbitone sodium (30 mg/kg) and the cephalic vein, femoral and carotid arteries and trachea were cannulated. The carotid cannula was introduced into the left ventricle and the femoral cannula into the aorta. Blood pressure and heart rate were recorded from the aortic cannula and left ventricular pressure from the carotid cannula. The test compunds were administered intravenously (0.1-25.6 mg/kg).
Method 2 (hypertensive rats)
Male or female rats are rendered hypertensive by applying a figure of 8 ligature around one kidney and contralateral nephrectomy. Blood pressure stabilises at a hypertensive level after 6 weeks. Systolic pressure is measured indirectly using a Decker Caudal Plethysmograph A control group of rats is run with each group treated with drug. Each group usually consists of six rats. Drugs are usually administered by the IP or oral routes. Pressures are read prior to drug administration and at two and 24 hours thereafter.

[4] = biological target: T1, histamine (Cavia porcellus, UniProt P31389); assay: Antihistamine activity by the method of Alps et al.; conditions: for antihistamine activity: result in words
T1 construct: from tissue

[5] = test system: α-adrenoceptor; assay: α-Adrenoceptor antagonism on the guinea pig aortic strip; conditions: for α-blockade pA2: Table 4; for α-adrenoceptor antagonism: result in words
Text: Carried out on the guinea pig aortic strip [Furchgott and Bhadrakom (1953) J. Pharmac. exp. Ther. 108, 129-143] by the method of Alps et al [Br. J. Pharmac. 1972 44, 52-62].

[6] = 0.25 h, read-out: Hypotensive Activity
[7] = Table 4, read-out: Antihistamine pA2 (converted)

T1 sequence (P31389 whole entry): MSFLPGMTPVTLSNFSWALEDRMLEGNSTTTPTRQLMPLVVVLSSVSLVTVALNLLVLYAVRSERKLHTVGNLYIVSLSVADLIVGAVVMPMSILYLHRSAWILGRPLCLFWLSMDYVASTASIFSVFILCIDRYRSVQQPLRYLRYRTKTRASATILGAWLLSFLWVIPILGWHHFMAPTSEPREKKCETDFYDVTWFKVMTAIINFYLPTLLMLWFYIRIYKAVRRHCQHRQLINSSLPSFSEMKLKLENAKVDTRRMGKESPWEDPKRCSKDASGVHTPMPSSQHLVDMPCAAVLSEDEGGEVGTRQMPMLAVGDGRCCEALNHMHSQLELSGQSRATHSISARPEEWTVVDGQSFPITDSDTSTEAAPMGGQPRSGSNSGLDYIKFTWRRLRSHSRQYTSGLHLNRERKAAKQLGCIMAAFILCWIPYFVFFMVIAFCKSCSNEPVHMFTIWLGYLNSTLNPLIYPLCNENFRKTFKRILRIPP

antihistamine activity [4]	Structure (SMILES)	minimal effective dose [2, 6]	hypotensive activity [3]	α-blockade pA2 [5]	other results
–	O=C(NC1CCN(CCc2cccc3ccccc23)CC1)c1ccccc1 [Example 12, 1-[2-(1-Naphthyl)ethyl]-4-benzamidopiperidine]	< 30 mg/kg	–	–	depressant activity [1]: depressant activity
antihistamine activity	O=C(NC1CCN(CCC2=CCc3ccccc32)CC1)c1ccccc1 [Example 14, 1-[2-(3-Indenyl)ethyl]-4-benzamidopiperidine]	6.4 to 12.8 mg/kg	hypotensive activity	–	–
antihistamine activities	O=C(NC1CCN(CCCC2=CCc3ccccc32)CC1)c1ccccc1 [Example 15, 1-[3-(3-Indenyl)propyl]-4-benzamidopiperidine]	6.4 to 12.8 mg/kg	hypotensive	7.4	–
–	Cc1ccccc1NC(=O)CCN1CCC(NC(=O)c2ccccc2)CC1 [Example 16, 1-[N-(2-Methylphenyl)carbamoylethyl]-4-benzamidopiperidine]	–	–	–	depressant activity [1]: depressant activity
antihistamine activity	CC(=O)Nc1ccc(OCC(O)CN2CCC(NC(=O)c3ccccc3)CC2)cc1 (stereo not drawn) [Example 17, 1-[1-(4-Acetamidophenoxy)-2-hydroxyprop-3-yl]-4-benzamidopiperidine]	< 30 mg/kg	hypotensive activity	–	Kb [4, 7]: 100 nM
–	O=C(NC1CCN(CCc2ccccc2)CC1)c1ccccc1 [Example 27, 1-Phenethyl-4-benzamidopiperidine]	1.6 to 3.2 mg/kg	hypotensive activity	–	pA2 (α-adrenoceptor antagonism) ([5]; guinea pig aortic strip): 5.7; Kb ([4]; Table 2): 79.4 nM; minimal effective dose ([2]; read-out: Significant hypotension (dose; fall of 30 mm mercury or more in diastolic pressure)): 3.2 mg/kg; Fatal (dose) ([2]; anaesthetised rat, i.v., cumulative dose): 12.8 to 25.6 mg/kg
anti-histamine activity	O=C(NC1CCN(CCCCc2ccc(F)cc2)CC1)c1ccccc1 [Example 40, 1-[4-(p-Fluorophenyl)-n-butyl]-4-benzamidopiperidine]	1.6 to 3.2 mg/kg	hypotensive activity	6.4	α-adrenoceptor antagonism [5]: α-adrenoceptor antagonism; Kb [4, 7]: 31.6 nM
antihistamine	Cc1ccc(C)c(C(=O)CCCN2CCC(NC(=O)c3ccccc3)CC2)c1 [Example 44, 4-Benzamido-1-[4-(2,5-dimethylphenyl)-4-oxobutyl]piperidine]	1.6 to 3.2 mg/kg	hypotensive activity	7.5	α-adrenoceptor antagonism [5]: α-adrenoceptor antagonist activities; Kb [4, 7]: 20 nM
antihistamine	Cc1ccc(C(=O)CCCN2CCC(NC(=O)c3ccccc3)CC2)c(C)c1 [Example 45, 4-Benzamido-1-[4-(2,4-dimethylphenyl)-4-oxo-butyl]piperidine]	1.6 to 3.2 mg/kg	hypotensive activity	7.2	α-adrenoceptor antagonism [5]: α-adrenoceptor antagonist activity; Kb [4, 7]: 10 nM
antihistamine activity	O=C(NC1CCN(CCCCc2ccccc2)CC1)c1ccccc1 [Example 46, 1-(4-Phenylbutyl)-4-benzamidopiperidine]	6.4 to 12.8 mg/kg	hypotensive activity	6.95	α-adrenoceptor antagonism [5]: α-adrenoceptor antagonist; Kb [4, 7]: 39.8 nM
–	O=C(NC1CCN(CCOc2ccccc2)CC1)c1ccccc1 [Example 52, 1-(2-Phenoxyethyl)-4-benzamidopiperidine]	6.4 to 12.8 mg/kg	marked hypotensive activity	5.9	–
–	O=C(CCCN1CCC(NC(=O)c2ccccc2)CC1)c1ccc2c(c1)CCCC2 [Example 58, 1-[4-(1,2,3,4-Tetrahydro-6-naphthyl)-4-oxobutyl]-4-benzamidopiperidine]	1.6 to 3.2 mg/kg	hypotensive activity	6.9	–
–	O=C(CCN1CCC(NC(=O)c2ccccc2)CC1)c1ccccc1 [Example 69, 4-Benzamido-1-(3-phenyl-3-oxopropyl)piperidine]	1.6 to 3.2 mg/kg	marked hypotensive activity	6.6	–
–	CC(C)(C)c1ccc(C(=O)CCCN2CCC(NC(=O)c3ccccc3)CC2)cc1 [Example 70, 4-Benzamido-1-[4-(4-tert-butyl-phenyl)-4-oxobutyl]piperidine]	0.8 mg/kg	hypotensive activity	6.6	–
–	NC1CCN(CCCC(=O)c2ccccc2)CC1 [Example 72, 4-Amino-1-(4-phenyl-4-oxobutyl)piperidine]	–	–	6.9	–
–	O=C(CCCN1CCC(NC(=O)c2ccc3c(c2)OCO3)CC1)c1ccccc1 [Example 74, 4-Piperonylamido-1-(4-phenyl-4-oxobutyl)-piperidine]	6.4 to 12.8 mg/kg	hypotensive activity	6.4	–

antihistamine activity [4]	Structure (SMILES)	minimal effective dose [2, 6]	hypotensive activity [3]	α-blockade pA2 [5]	other results
–	O=C(CCCN1CCC(NC(=O)C2CCCCC2)CC1)c1ccccc1 [Example 75, 4-Cyclohexanecarboxamido-1-(4-phenyl-4-oxobutyl)piperidine]	6.4 to 12.8 mg/kg	marked hypotensive activity	6.9	–
–	O=C(NC1CCN(CCCC(O)c2ccc3c(c2)CCCC3)CC1)c1ccccc1 (stereo not drawn) [Example 79, 1-[4-(1',2',3',4'-Tetrahydro-6'-naphthyl)-4-hydroxybutyl]-4-benzamidopiperidine]	1.6 to 3.2 mg/kg	hypotensive activity	6.05	Kb [4, 7]: 100 nM
–	O=C(NC1CCN(CCCCc2ccc3c(c2)CCCC3)CC1)c1ccccc1 [Example 81, 1-[4-(1',2',3',4'-Tetrahydro-6-naphthyl)butyl]-4-benzamidopiperidine]	1.6 to 3.2 mg/kg	hypotensive activity	6.6	–
–	O=C(NC1CCN(CCCC(O)c2ccc3ccccc3c2)CC1)c1ccccc1 (stereo not drawn) [Example 83, 1-[4-(2'-Naphthyl)-4-hydroxybutyl]-4-benzamidpiperidine]	1.6 to 3.2 mg/kg	hypotensive activity	–	–
–	O=C(NC1CCN(CCc2ccc3ccccc3c2)CC1)C1CCCCC1 [Example 84]	6.4 to 12.8 mg/kg	hypotensive activity	–	–
–	O=C(NC1CCN(CCC=C(c2ccc(F)cc2)c2ccc(F)cc2)CC1)c1ccccc1 [Example 87, 4-(4-Benzamidopiperid-1-yl)-1,1-(di-p-fluorophenyl)but-l-ene]	25.6 mg/kg	hypotensive activity	–	–
–	O=C(NC1CCN(CCCC(c2ccc(F)cc2)c2ccc(F)cc2)CC1)c1ccccc1 [Example 88, 4-(4-Benzamidopiperid-1-yl)-1,1-(di-p-fluorophenyl)butane]	1.6 to 3.2 mg/kg	hypotensive activity	5.9	–
–	O=C(NC1CCN(CCC=C(c2ccccc2)c2ccccc2)CC1)c1ccccc1 [Example 89, 4-(4-Benzamidopiperid-1-yl)-1,1-diphenylbut-l-ene]	6.4 to 12.8 mg/kg	hypotensive activity	–	–
–	O=C(NC1CCN(CCCC(c2ccccc2)c2ccccc2)CC1)c1ccccc1 [Example 90, 4-(4-Benzamidopiperid-1-yl)-1,1-diphenyl butane]	6.4 to 12.8 mg/kg	hypotensive activity	–	–
–	O=C(CCN1CCC(NC(=O)c2ccccc2)CC1)c1ccc2c(c1)OCCO2 [Example 91, 1-[3-(1,4-Benzodioxan-6-yl)-3-oxopropyl]-4-benzamidopiperidine]	25.6 mg/kg	hypotensive activity	–	–
–	O=C(NC1CCN(CCC(O)c2ccc3c(c2)OCCO3)CC1)c1ccccc1 (stereo not drawn) [Example 92, 1-[3-(1,4-Benzodioxan-6-yl)-3-hydroxypropyl]-4-benzamido piperidine]	–	hypotensive activity	6.6	hypotensive activity ([2]; Table 3, cumulative iv dose, fall in diastolic blood pressure of 30 mm or more for at least 15 min): + ++
antihistamine activity	O=C(NC1CCN(CCc2ccncc2)CC1)c1ccccc1 [Example 93, 1-[2-(4-Pyridyl)ethyl]-4-benzamidopiperidine]	< 30 mg/kg	marked hypotensive activity	–	–
anti-histamine activity	O=C(NC1CCN(CCc2c[nH]cn2)CC1)c1ccccc1 [Example 96, 1-[2-(4-Imidazolyl)ethyl]-4-benzamidopiperidine]	6.4 to 12.8 mg/kg	hypotensive activity	–	–
–	Cc1cc(CN2CCC(NC(=O)c3ccccc3)CC2)c(C)n1-c1ccccc1 [Example 99, 1-(2,5-Dimethyl-1-phenylpyrrol-3-yl-methyl)-4-benzamidopiperidine]	< 30 mg/kg	hypotensive activity	–	–
antihistamine activity	O=C(NC1CCN(CCc2csc3ccccc23)CC1)c1ccccc1 [Example 100, 1-[2-(3-Benzo[b]thienyl)ethyl]-4-benzamidopiperidine]	< 30 mg/kg	hypotensive activity	–	–
